Source: PMC12715762, “Discovery of VU6052254: A Novel, Potent M1 Positive Allosteric Modulator” (ACS Chemical Neuroscience, 2025)
“Also recorded” adds a separate entry of the source.

Tests used:
[1] = test system: Calcium Channel L-Type, Dihydropyridine; test: Eurofins radioligand binding; settings: Rat
[2] = test system: CV ion channels; test: CV ion channel EP panel; assay type: cell-based; settings: result in words
[3] = test system: Glutamate, Kainate; test: Eurofins radioligand binding; settings: Rat
[4] = molecular target: Adenosine A3 (Homo sapiens, UniProt P0DMS8); test: Eurofins radioligand binding
Chain of Adenosine A3 (P0DMS8 whole entry): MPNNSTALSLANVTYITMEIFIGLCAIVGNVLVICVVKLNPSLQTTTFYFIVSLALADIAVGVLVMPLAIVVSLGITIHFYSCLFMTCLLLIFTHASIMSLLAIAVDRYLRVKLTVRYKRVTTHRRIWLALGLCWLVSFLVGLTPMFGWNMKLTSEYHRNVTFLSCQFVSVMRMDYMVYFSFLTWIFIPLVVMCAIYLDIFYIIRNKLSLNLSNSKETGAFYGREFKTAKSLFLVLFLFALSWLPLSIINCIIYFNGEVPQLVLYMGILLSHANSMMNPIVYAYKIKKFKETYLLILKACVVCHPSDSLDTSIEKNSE

[5] = molecular target: CYP 2D6 (Homo sapiens, UniProt P10635); test: CYP450 inhibition; assay type: in vitro ADME
Chain of CYP 2D6 (P10635 whole entry): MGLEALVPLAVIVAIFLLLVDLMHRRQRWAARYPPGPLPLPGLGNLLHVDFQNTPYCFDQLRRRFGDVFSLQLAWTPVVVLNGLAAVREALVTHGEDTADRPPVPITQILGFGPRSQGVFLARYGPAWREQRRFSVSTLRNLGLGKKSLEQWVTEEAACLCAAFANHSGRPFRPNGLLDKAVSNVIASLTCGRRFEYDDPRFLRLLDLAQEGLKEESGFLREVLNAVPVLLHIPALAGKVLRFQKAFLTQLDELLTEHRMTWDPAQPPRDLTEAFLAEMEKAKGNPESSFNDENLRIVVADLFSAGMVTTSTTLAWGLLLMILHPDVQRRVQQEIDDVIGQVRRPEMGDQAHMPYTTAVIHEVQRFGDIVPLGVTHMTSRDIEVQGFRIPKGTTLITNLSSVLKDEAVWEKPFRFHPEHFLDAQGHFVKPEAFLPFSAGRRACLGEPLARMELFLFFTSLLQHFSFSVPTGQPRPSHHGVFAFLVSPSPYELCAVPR

[6] = molecular target: Serotonin (5-HT1A) (Homo sapiens, UniProt P08908); test: Eurofins radioligand binding
Chain of Serotonin (5-HT1A) (P08908 whole entry): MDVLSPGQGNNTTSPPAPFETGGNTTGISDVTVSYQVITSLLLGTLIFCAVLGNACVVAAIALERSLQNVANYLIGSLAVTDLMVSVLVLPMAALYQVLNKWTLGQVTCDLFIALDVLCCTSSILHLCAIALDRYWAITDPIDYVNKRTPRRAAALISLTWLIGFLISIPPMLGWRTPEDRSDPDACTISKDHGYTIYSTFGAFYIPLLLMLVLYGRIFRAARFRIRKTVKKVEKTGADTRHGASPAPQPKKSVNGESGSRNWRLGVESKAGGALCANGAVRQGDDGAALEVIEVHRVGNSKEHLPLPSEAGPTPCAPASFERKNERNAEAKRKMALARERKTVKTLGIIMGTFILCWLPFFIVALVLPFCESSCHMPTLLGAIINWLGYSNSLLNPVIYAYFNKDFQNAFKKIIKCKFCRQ

[7] = molecular target: Endothelin ETA (Homo sapiens, UniProt P25101); test: Eurofins radioligand binding
Chain of Endothelin ETA (P25101 21-427): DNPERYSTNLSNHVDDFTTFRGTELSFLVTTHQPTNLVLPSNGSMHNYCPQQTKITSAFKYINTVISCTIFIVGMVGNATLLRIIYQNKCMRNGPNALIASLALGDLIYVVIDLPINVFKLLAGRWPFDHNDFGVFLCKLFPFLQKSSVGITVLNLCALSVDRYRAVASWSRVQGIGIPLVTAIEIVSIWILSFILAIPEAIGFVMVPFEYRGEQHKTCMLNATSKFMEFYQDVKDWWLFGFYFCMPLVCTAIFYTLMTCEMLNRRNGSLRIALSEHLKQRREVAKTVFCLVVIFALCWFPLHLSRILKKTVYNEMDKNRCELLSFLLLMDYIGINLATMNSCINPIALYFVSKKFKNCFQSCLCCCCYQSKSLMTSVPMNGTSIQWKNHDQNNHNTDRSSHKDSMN

[8] = molecular target: Muscarinic M1 (Homo sapiens, UniProt P11229); test: Eurofins radioligand binding
Chain of Muscarinic M1 (P11229 whole entry): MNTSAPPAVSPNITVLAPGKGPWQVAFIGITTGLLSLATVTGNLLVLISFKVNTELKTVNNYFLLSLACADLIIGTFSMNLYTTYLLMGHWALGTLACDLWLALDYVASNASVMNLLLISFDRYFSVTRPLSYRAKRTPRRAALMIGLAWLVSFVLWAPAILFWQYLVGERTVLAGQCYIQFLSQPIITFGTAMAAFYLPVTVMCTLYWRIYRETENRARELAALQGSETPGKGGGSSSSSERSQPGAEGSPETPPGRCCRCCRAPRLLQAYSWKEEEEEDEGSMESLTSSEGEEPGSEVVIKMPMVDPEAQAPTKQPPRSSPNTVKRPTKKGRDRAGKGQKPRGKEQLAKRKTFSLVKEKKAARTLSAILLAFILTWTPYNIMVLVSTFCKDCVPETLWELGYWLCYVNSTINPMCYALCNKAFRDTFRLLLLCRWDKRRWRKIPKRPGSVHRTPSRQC

[9] = test system: 3A4; test: CYP450 induction in human hepatocytes (three donors); assay type: cell-based
[10] = molecular target: Epidermal Growth Factor (EGF) (Homo sapiens, UniProt P00533); test: Eurofins radioligand binding
[11] = molecular target: Adrenergic α1A (Homo sapiens, UniProt P35348); test: Eurofins radioligand binding
[12] = test system: Calcium Channel L-Type, Benzothiazepine; test: Eurofins radioligand binding; settings: Rat
[13] = molecular target: Potassium Channel [KATP] (Cricetus cricetus, UniProt Q09427); test: Eurofins radioligand binding; settings: Hamster
[14] = test system: GABAA, Flunitrazepam, Central; test: Eurofins radioligand binding; settings: Rat
[15] = molecular target: CYP 3A4 (Homo sapiens, UniProt P08684); test: CYP450 inhibition; assay type: in vitro ADME
Chain of CYP 3A4 (P08684 whole entry): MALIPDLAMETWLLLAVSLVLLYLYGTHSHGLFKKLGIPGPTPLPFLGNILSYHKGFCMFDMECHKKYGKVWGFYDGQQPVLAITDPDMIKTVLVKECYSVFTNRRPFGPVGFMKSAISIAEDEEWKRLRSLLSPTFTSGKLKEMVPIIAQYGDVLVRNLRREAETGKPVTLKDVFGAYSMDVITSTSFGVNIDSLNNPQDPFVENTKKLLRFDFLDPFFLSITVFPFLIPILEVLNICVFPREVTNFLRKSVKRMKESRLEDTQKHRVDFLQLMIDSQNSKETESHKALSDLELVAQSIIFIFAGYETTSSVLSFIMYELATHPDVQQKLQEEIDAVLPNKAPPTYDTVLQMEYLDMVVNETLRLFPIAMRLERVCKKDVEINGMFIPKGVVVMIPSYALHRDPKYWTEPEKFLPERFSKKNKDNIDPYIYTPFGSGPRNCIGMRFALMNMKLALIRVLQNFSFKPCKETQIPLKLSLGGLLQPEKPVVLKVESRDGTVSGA

[16] = molecular target: Bradykinin B1 (Homo sapiens, UniProt P46663); test: Eurofins radioligand binding
Chain of Bradykinin B1 (P46663 whole entry): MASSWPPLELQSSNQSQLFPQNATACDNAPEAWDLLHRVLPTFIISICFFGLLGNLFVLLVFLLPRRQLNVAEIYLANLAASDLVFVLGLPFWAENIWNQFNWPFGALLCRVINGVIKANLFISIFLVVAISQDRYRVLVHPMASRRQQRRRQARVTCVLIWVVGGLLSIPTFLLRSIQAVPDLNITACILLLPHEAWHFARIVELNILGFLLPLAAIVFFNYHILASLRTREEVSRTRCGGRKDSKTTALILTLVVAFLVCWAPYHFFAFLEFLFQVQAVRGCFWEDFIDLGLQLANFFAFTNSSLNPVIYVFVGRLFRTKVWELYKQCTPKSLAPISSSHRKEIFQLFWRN

[17] = test system: Sprague-Dawley rats; test: novel object recognition (NOR); assay type: in vivo, rat
Description: monitored continuously and scored for behavioral manifestations of seizure activity at 5, 15, 30 min, and 1 h. Behavioral manifestations of seizures were scored using a modified Racine scoring system. Briefly, a score of 0 represents no behavior alterations; score 1, immobility, mouth and facial movements, or facial clonus; score 2, head nodding, tail extension; score 3, forelimb clonus, repetitive movements; score 4, rearing and tonic clonic seizure; and score 5, continuous rearing and falling, severe generalized tonic clonic seizure.
Novel Object Recognition Task
Rats were habituated for 10 min for 2 consecutive days in an empty novel object recognition (NOR) arena consisting of dark-colored plexiglass box (40 × 64 × 33 cm3). On day 3 rats were administered vehicle, M1 PAM 3 (1-10 mg/kg, p.o.., 10 mL/kg, n = 13-18), or M 1 PAM 5 (0.3-3 mg/kg, p.o.., 10 mL/kg, n = 16-18) and returned to their home cage for 60 min (M 1 PAM 5) or 2 hr (M1 PAM 3. Rats were then placed in the NOR arena containing two identical objects for 10 min. Following the exposure period, rats were placed back into their home cages for 24 h. The rats were then returned to the arena in which one of the previously exposed (familiar) objects was replaced by a novel object and were video recorded for 5 min while they explored the two objects.
Time spent exploring each object was scored by an observer blinded to the experimental conditions and the recognition index was calculated as [(time spent exploring novel object) – (time spent exploring familiar object)]/total time exploring objects.

[18] = test system: Phorbol Ester; test: Eurofins radioligand binding; settings: Mouse
[19] = molecular target: Androgen (Testosterone) (Homo sapiens, UniProt P10275); test: Eurofins radioligand binding
[20] = molecular target: Dopamine D2S (Homo sapiens, UniProt P14416); test: Eurofins radioligand binding
Chain of Dopamine D2S (P14416 1-414 isoform P14416-2): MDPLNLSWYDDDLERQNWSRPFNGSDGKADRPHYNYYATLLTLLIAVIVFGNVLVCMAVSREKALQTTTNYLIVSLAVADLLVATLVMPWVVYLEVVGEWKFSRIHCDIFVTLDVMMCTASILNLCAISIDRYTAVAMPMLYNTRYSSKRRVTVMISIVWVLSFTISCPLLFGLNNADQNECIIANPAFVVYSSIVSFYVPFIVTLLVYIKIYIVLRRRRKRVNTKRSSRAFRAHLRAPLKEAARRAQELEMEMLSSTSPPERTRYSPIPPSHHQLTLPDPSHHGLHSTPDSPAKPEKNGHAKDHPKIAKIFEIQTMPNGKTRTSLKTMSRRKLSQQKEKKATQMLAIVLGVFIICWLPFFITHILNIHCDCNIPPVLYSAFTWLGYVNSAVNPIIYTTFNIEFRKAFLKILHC

[21] = GSH trapping; assay type: in vitro ADME; settings: human microsomes; result in words
[22] = molecular target: T1, hERG (Homo sapiens, UniProt Q12809); test: functional hERG manual patch clamp (MPC) assay; assay type: cell-based
T1 construct: Charles River
T1 sequence (Q12809 whole entry): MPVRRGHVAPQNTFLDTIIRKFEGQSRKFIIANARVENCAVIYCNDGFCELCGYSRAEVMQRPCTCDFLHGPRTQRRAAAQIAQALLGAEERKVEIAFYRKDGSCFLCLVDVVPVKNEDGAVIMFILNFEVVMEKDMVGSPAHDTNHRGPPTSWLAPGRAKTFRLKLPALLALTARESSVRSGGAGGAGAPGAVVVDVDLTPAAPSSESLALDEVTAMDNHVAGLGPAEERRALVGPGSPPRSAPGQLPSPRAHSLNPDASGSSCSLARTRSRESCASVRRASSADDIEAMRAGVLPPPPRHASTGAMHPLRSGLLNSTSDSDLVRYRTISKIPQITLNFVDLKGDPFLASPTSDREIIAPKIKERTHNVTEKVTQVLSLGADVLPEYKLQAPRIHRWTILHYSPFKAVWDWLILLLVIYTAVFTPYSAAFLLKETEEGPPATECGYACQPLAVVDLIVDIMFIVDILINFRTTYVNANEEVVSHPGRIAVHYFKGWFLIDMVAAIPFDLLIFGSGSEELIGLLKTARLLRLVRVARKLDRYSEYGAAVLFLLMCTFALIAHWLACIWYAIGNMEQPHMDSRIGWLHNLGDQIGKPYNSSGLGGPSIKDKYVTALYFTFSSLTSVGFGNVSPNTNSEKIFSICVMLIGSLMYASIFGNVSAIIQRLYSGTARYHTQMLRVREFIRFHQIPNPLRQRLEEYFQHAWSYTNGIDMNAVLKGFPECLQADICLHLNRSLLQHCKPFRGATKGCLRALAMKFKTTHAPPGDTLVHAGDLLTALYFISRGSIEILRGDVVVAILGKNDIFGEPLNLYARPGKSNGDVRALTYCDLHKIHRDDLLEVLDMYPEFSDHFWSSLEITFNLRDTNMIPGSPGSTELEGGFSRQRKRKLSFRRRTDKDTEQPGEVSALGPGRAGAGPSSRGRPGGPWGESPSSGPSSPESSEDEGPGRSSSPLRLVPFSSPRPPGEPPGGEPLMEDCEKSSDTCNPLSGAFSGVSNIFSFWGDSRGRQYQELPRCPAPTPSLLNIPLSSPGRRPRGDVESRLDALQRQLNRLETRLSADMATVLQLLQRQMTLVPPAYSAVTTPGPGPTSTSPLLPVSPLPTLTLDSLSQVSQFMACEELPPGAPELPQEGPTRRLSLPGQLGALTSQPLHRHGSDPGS

[23] = molecular target: Adenosine A1 (Homo sapiens, UniProt P30542); test: Eurofins radioligand binding
Chain of Adenosine A1 (P30542 whole entry): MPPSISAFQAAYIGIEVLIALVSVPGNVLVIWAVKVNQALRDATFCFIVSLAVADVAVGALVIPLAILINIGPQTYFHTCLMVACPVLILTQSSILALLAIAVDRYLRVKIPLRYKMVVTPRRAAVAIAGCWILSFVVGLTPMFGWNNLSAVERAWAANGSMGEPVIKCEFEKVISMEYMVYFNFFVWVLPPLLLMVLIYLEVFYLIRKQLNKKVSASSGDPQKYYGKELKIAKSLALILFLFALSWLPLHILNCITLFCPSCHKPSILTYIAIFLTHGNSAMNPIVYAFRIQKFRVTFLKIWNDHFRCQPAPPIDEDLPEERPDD

[24] = test system: Glutamate, NMDA, Glycine; test: Eurofins radioligand binding; settings: Rat
[25] = plasma protein binding, equilibrium dialysis (cyno); assay type: in vitro ADME; settings: cynomolgus monkey, pH 7.4, cyno (c), read-out: fu,plasma
Description: Plasma protein binding and Brain homogenate binding: Determination of fraction unbound (f u) in plasma was conducted in vitro via equilibrium dialysis using HTDialysis (HTD) membrane plates. The top half of the plate was filled with 100 uL of Dubelco’s Phosphate Buffered Saline, pH 7.4 (DPBS). Compounds were diluted into plasma from each species (5 µM final concentration), which was aliquoted in triplicate to the ‘bottom half’ of the prepared HTD plate wells. The HTD plate was sealed and incubated for 6 hours at 37 °C. Following incubation, each well (both top and bottom halves) were transferred (20 µL) to the corresponding wells of a 96-shallow-well (V-bottom) plate. […]
The unbound fraction (f u) was calculated following the equation below, and mean values for each species were calculated from 3 replicates.
A similar approach was used to determine the degree of brain homogenate binding, which employed the same methodology and procedure with the following modifications: 1) a final compound concentration of 1 μM was used, 2) naïve rat brains were homogenized in DPBS (1:3 composition of brain: DPBS, w/w) using a Mini-Bead Beater™ machine in order to obtain brain homogenate, which was then treated in the same manner as the plasma samples in the previously described plasma protein binding assay. Fraction unbound for both plasma and brain samples was determined using Equation 4. […]

Cn1cc2c(-c3cc(F)c(CN4Cc5ncccc5C4=O)c(F)c3)ccc(C(C)(C)O)c2n1 [compound 7]
% Inhibition at 10 µM [1]: 59%
activity in CV ion channel EP panel [2]: no significant activities
% Inhibition at 10 µM [3]: -2%
inhibition at 10 µM [4]: 8%
IC50 [5]: > 30 µM
inhibition at 10 µM [6]: 12%
inhibition at 10 µM [7]: 11%
inhibition at 10 µM [8]: 18%
3A4 induction ([9]; 10 μM, human hepatocytes from three donors): 7.6%
3A4 induction ([9]; 30 μM, mRNA as the reporter): 30.5%
inhibition at 10 µM [10]: -14%
inhibition at 10 µM [11]: 13%
% Inhibition at 10 µM [12]: 80%
inhibition at 10 µM [13]: 11%
% Inhibition at 10 µM [14]: 4%
IC50 [15]: > 30 µM
inhibition at 10 µM [16]: 0%
free brain concentration at NOR MED ([17]; 1 mg/kg PO, rat): 71 nM
effect on recognition index / recognition memory in NOR ([17]; 0.3 to 3.0 mg/kg PO, result in words): dose-dependently increased the recognition index; also recorded: dose-dependently enhanced the recognition memory
minimum effective dose (MED) in rat NOR ([17]; PO, 10% Tween 80 in water, male Sprague-Dawley rats): 1 mg/kg
margin in terms of dose, NOR MED relative to the seizure assay and the Irwin battery ([17]; rat, in vivo): ~50 fold
margin in terms of total brain exposure, NOR MED relative to the seizure assay and the Irwin battery ([17]; rat, in vivo): 11- to 16 fold
% Inhibition at 10 µM [18]: 12%
inhibition at 10 µM [19]: -4%
inhibition at 10 µM [20]: -2%
GSH trapping [21]: no evidence of GSH trapping
IC50 [22]: > 30 µM
inhibition at 10 µM [23]: -2%
% Inhibition at 10 µM [24]: -9%
fraction unbound at 6 h, 5 µM [25]: 0.06
